Where “and” joins values, the source holds several entries; their conditions need not be identical. Equal entries are not always repeated.
Assays:
5-LO = target: T1, 5-LO (Homo sapiens, UniProt P09917); experiment: 5-LO product formation (LTB4, 5-HETE) in intact PMNL, A23187 + 20 µM AA; assay type: cell-based; settings: 15 min preincubation, A23187 2.5 µM + 20 µM AA, n.i. = no inhibition observed; for PMNL (20 µM AA) 5-HETE IC50 / PMNL (20 µM AA) LTB4 IC50: intact PMNL
T1 construct: endogenous in cells; host or cells: human PMNL from buffy coats
T1 sequence (P09917 1-674): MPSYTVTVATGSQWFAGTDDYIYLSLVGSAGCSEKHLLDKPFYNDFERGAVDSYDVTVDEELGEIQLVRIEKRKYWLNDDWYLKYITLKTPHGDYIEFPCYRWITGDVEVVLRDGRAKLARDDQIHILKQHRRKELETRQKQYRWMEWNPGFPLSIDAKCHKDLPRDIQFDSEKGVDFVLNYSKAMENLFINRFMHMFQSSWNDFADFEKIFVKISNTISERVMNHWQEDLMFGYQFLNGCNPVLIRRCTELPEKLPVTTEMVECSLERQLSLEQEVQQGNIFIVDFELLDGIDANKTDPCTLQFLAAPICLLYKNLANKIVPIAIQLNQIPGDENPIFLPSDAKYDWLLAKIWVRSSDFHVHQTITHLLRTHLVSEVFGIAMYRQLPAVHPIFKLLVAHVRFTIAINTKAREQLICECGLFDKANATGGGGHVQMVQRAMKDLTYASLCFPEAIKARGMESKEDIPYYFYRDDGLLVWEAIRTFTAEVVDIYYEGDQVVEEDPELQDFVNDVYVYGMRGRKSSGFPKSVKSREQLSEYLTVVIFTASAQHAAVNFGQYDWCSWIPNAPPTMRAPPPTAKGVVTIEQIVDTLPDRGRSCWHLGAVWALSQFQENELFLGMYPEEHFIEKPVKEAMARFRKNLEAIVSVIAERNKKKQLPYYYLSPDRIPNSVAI
Experimental: Buffy coats from different donors of different blood types were commercially obtained from DRK Blutspendedienst Baden-Württemberg Institute Frankfurt. Donors have given their written consent. […] Following separation, the supernatant was transferred very gently to new 50-ml tubes containing lymphocyte separation medium (LSM) and centrifuged for 10 min at 800 ×g at RT with the centrifuge brake turned off. Afterwards, the supernatant was decanted carefully to discard the platelets and monocytes. The PMNL were washed with 1× PBS before the residual erythrocytes were lysed in two cycles: the cell pellet was resuspended with 10 ml H2O and vortexed for 45 s, and lysis was stopped with 40 ml 1 × PBS. After 10-min centrifugation at 200 ×g at RT, the cycle was repeated once. The supernatant was aspirated, the cell pellet resuspended in 5 ml PBS/glucose and initially separated PMNL preparations with different blood types were finally pooled to gain a sufficient number of cells. […] The enzyme was diluted in PBS/EDTA/ATP, transferred into 5-ml glass tubes, and stored on ice. […] The reaction was stopped by placing the glass tubes on ice. The supernatants were transferred to 1.5 ml reaction tubes and stored at −80°C before LC-MS (liquid chromatography and mass spectrometry) analysis of LTB4 and HETEs as described in 2.6 at the Institute of Pharmacology, Goethe University, University Hospital, Germany. The lipid mediators LTB4, hydroxyeicosatetraenoic acids, 5(S)-HETE, 12(S)-HETE, 15(S)-HETE and 20-HETE were analyzed using liquid chromatography tandem-mass spectroscopy (LC-MS/MS). The LC-MS/MS system consisted of a 5500 QTrap mass spectrometer (Sciex, Darmstadt, Germany), operating in negative ESI mode, an Agilent 1200 HPLC system (Agilent, Waldbronn, Germany) and an HTC Pal autosampler (Chromtech, Idstein, Germany). Sample extraction of LTB4 and HETEs were performed using liquid-liquid extraction: 200 µl of the sample were gently mixed with 20 µl of methanol and 20 µl of internal standard solution and extracted twice with 600 µl ethyl acetate. […] Working solutions of all analytes were prepared in methanol containing 0.1% BHT. The calibration standards were prepared by further dilution of the working standards. […] The residues were reconstituted in 50 µl of methanol:water:BHT (50:50:10^−4, v/v/v) prior to injection into the LC-MS/MS system. Chromatographic separation was achieved using a Gemini NX C18 column (150 mm × 2 mm ID, 5 µm, Phenomenex, Aschaffenburg, Germany) with a precolumn of the same material. A linear gradient was employed at a flow rate of 0.5 ml/min and a total run time of 17.5 min. Mobile phases were A water:ammonia (100:0.05, v/v) and B acetonitrile:ammonia (100:0.05, v/v). […] All data were acquired using Analyst software v1.6.2 and quantitation was performed by MultiQuant software v3.0 (both Sciex, Darmstadt, Germany) using the internal standard method (isotope-dilution mass spectrometry). Calibration curves were calculated by linear regression with 1/x.

HT-29 cells = experiment: WST-1 cell viability assay, HT-29; assay type: cell-based, human; settings: n.i. = no inhibition observed; for IC50: Homo sapiens, HT-29, 48 h
Experimental: Cell viability was analyzed with the WST-1 assay based on the cleavage of the stable tetrazolium salt WST-1 by the mitochondrial reductase system. Cells were seeded in the appropriate densities in a clear 96-well plate and settled overnight at 37°C in 5% CO2. The next day, the cells were treated with NFA or the substances of interest (≤0.1% dimethyl sulfoxide [DMSO]) and incubated for 24 or 48 h at 37°C in 5% CO2. Cell viability was analyzed by adding 10 µl WST-1 solution (Roche, Basel, Switzerland) and subsequently incubating the cells at 37°C for another 30–40 min. Absorbance was measured at 450 nm with a control wavelength at 620 nm using a plate reader.
Besides targeting the NF-κB pathway, the anti-tumorigenic effects of NFA can be observed by a reduction of colorectal cancer cell viability. […] Again, the cytotoxic effects of NFA were determined in HCT-116 and HT-29 colorectal cancer cells in the present study. […] HCT-116 cells were treated with increasing concentrations of NFA differing in chain length and Michael acceptor position for 24 h, and cell viability was determined using the WST-1 assay. Due to their prolonged cell division rate and their lack of sensitivity towards NFA ([Kühn et al., 2018]), HT-29 cells were treated for 48 h to gain improved NFA activity.

[1] = PMNL (20 µM AA) 5-HETE IC50, intact PMNL
[2] = PMNL (20 µM AA) LTB4 IC50, intact PMNL

Row | PMNL (20 µM AA) 5-HETE IC50 (5-LO) | PMNL (20 µM AA) LTB4 IC50 (5-LO) | IC50 (HT-29 cells) [µM] | IC50 (5-LO; [1]) | IC50 (5-LO; [2]) [µM] | Structure (SMILES) | HT-29 (48 h) IC50 (HT-29 cells)
1 | – | – | 13.8 ± 1.1 | 11.2 ± 1.2 µM | 8.3 ± 1.1 | CCCCCCCCCCCC(=CCCCCC(=O)O)[N+](=O)[O-] [18.6.7, 7-nitro-octadec-6-enoic acid] | –
2 | – | – | 4.4 ± 1.1 | 4.9 ± 1.1 µM | 4.3 ± 1.1 | CCCCCCCCCCC=C(CCCCCC(=O)O)[N+](=O)[O-] [18.7.7, 7-nitro-octadec-7-enoic acid] | –
3 | – | – | 3.3 ± 1.1 | 6.6 ± 1.1 µM | 7.9 ± 1.1 | CCCCCCCCCC=C(CCCCCCC(=O)O)[N+](=O)[O-] [18.8.8, 8-nitro-octadec-8-enoic acid] | –
4 | – | – | 8 ± 1.1 | 7.7 ± 1.2 µM | 5.7 ± 1.2 | CCCCCCCCCC(=CCCCCCCC(=O)O)[N+](=O)[O-] [18.8.9, 9-nitro-octadec-8-enoic acid] | –
5 | – | – | 15.7 ± 1.1 | 6.9 ± 1.1 µM | 5 ± 1.1 | CCCCCCCCC(=CCCCCCCCC(=O)O)[N+](=O)[O-] [18.9.10, 10-nitro-octadec-9-enoic acid] | –
6 | – | – | 13.9 ± 1.1 | 6 ± 1.2 µM | 7 ± 1.1 | CCCCCCCC=C(CCCCCCCCC(=O)O)[N+](=O)[O-] [18.10.10, 10-nitro-octadec-10-enoic acid] | –
7 | – | – | 16.6 ± 1.1 | 5.7 ± 1.1 µM | 5.9 ± 1.1 | CCCCCCC=C(CCCCCCCCCC(=O)O)[N+](=O)[O-] [18.11.11, 11-nitro-octadec-11-enoic acid] | –
8 | – | – | 8.1 ± 1.1 | 4.7 ± 1.1 µM | 4.2 ± 1.1 | CCCCCCCCCCC=C(CCCCCCCC(=O)O)[N+](=O)[O-] [20.9.9, 9-nitro-eicos-9-enoic acid] | –

The next lines start with the compound.

Row | Structure (SMILES) | PMNL (20 µM AA) 5-HETE IC50 (5-LO) | PMNL (20 µM AA) LTB4 IC50 (5-LO) | IC50 (HT-29 cells) [µM] | IC50 (5-LO; [1]) | IC50 (5-LO; [2]) [µM] | HT-29 (48 h) IC50 (HT-29 cells)
9 | CCC=C(CCCCCCCC(=O)O)[N+](=O)[O-] [12.9.9, 9-nitro-dodec-9-enoic acid] | n.i. | n.i. | ~31.5 | – | – | –
10 | CCCCC=C(CCCCCCCC(=O)O)[N+](=O)[O-] [14.9.9, 9-nitro-tetradec-9-enoic acid] | n.i. | n.i. | 27.4 ± 1 | – | – | –
11 | CCCCCCC=C(CCCCCCCC(=O)O)[N+](=O)[O-] [16.9.9, 9-nitro-hexadec-9-enoic acid] | – | – | 12.7 ± 1.1 | 10.8 ± 1.1 µM | 12 ± 1.1 | –
12 | CCCCCCCCCCCCCC=C(CCC(=O)O)[N+](=O)[O-] [18.4.4, 4-nitro-octadec-4-enoic acid] | – | – | 23.9 ± 1.1 | 9.2 ± 1.2 µM | 10.6 ± 1.1 | –
13 | CCCCCCCCCCCCC=C(CCCC(=O)O)[N+](=O)[O-] [18.5.5, 5-nitro-octadec-5-enoic acid] | – | – | 18.5 ± 1.1 | 7.5 ± 1.1 µM | 9 ± 1.1 | –
14 | CCCCCCCCCCCC=C(CCCCC(=O)O)[N+](=O)[O-] [18.6.6, 6-nitro-octadec-6-enoic acid] | – | – | 11.1 ± 1.1 | 9.1 ± 1.2 µM | 7.7 ± 1.1 | –
15 | CCCCCCCCC=C(CCCCCCCC(=O)O)[N+](=O)[O-] [18.9.9, 9-nitro-octadec-9-enoic acid] | – | – | 8.8 ± 1.1 | 5.9 µM and 6.1 µM | 4.8 ± 1.8 | –
16 | CCCCCCCC/C=C\CCCCCCCC(=O)O [OA, oleic acid, reference compound] | n.i. | n.i. | – | – | – | failed to induce cytotoxic effects and n.i.

From paper PMC8637440, “Structural Modifications Yield Novel Insights Into the Intriguing Pharmacodynamic Potential of Anti-inflammatory Nitro-Fatty Acids” (Frontiers in Pharmacology, 2021)
